Results as given in ChEMBL document CHEMBL5331105, “Newly Synthesized 3-Indolyl Furanoid Inhibits Matrix Metalloproteinase-9 Activity and Prevents Nonsteroidal Anti-inflammatory Drug-Induced Gastric Ulceration” (J Med Chem, 2023).
Active and inactive are the calls of the source. The rule behind the calls is not given here.

Columns and labels:
[1] = Toxicity in Balb/c mouse assessed as effect on body weight at 150 to 300 mg/kg, po administered via gavage for 25 days; type: organism-based; conditions: in vivo, 600 h, dose 150-300 mg/kg, time 25 day
[2] = AUC in Sprague-Dawley rat at 250 mg/kg, po administered via gavage by HPLC analysis; type: ADME, organism-based; design: dose 250 mg/kg, route po; conditions: in vivo
Mus musculus [3] = test: (§1) Antiulcer activity in indomethacin-induced Balb/c mouse model of gastric ulcer assessed as prevention of inflammatory cell infiltration at 50 mg/kg, po pre-administered with compound for 30 mins followed by indomethacin administration and measured after 4 hrs by H&E staining based analysis relative to control; type: functional; conditions: time 4.5 hrs
Mus musculus [4] = test: Antiulcer activity in indomethacin-induced Balb/c mouse model of gastric ulcer assessed as intact epithelial layer in gastric tissue at 50 mg/kg, po pre-administered with compound for 30 mins followed by indomethacin administration and measured after 4 hrs by H&E staining based analysis; type: functional, organism-based; conditions: time 4.5 hrs
[5] = Toxicity in Balb/c mouse assessed as lethargy at 150 to 300 mg/kg, po administered via gavage for 25 days; type: organism-based; conditions: in vivo, 600 h, dose 150-300 mg/kg, time 25 day
[6] = Tmax in Sprague-Dawley rat at 250 mg/kg, po administered via gavage by HPLC analysis; type: ADME, organism-based; conditions: in vivo
[7] = molecular target: T1, Matrix metalloproteinase-9 (Homo sapiens, UniProt P14780); test: Inhibition of human MMP-9 incubated for 3 hrs by SDS-PAGE based gelatin zymography analysis
[8] = molecular target: T2, Prostaglandin G/H synthase 2 (Homo sapiens, UniProt P35354); test: Inhibition of COX2 (unknown origin) preincubated with compound for 5 mins followed by substrate addition and measured after 5 mins by fluorescence spectrophotometer analysis
T2 sequence (P35354 whole entry): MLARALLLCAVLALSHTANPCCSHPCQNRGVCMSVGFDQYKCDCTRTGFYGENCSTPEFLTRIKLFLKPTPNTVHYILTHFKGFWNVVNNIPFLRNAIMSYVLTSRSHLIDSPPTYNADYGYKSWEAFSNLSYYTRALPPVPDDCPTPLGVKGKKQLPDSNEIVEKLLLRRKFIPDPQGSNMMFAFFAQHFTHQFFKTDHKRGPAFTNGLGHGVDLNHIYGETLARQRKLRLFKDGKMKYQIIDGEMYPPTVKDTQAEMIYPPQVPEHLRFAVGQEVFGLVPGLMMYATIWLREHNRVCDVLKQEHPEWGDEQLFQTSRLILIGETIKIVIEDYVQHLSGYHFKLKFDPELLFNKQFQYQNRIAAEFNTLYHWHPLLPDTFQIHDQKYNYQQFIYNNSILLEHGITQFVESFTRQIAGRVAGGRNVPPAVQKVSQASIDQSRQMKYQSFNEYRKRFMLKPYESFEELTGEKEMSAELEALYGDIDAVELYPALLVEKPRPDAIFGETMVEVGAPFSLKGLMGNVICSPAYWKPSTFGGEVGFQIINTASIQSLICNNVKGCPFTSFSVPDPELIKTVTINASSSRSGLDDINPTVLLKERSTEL

[9] = molecular target: 72 kDa type IV collagenase (Homo sapiens) (UniProt P08253); test: Inhibition of MMP-2 (unknown origin) upto 500 uM incubated for 3 hrs by SDS-PAGE analysis
Mus musculus [10] = test: Antiulcer activity in indomethacin-induced Balb/c mouse model of gastric ulcer assessed as reduction in mucosal injury at 50 mg/kg, po pre-administered with compound for 30 mins followed by indomethacin administration and measured after 4 hrs by H&E staining based analysis relative to control; type: functional; design: scale not given: the % may be the effect or the level left; conditions: time 4.5 hrs
[11] = Toxicity in Balb/c mouse assessed as fur loss at 150 to 300 mg/kg, po administered via gavage for 25 days; type: organism-based; conditions: in vivo, 600 h, dose 150-300 mg/kg, time 25 day
[12] = Toxicity in Balb/c mouse assessed as hunching at 150 to 300 mg/kg, po administered via gavage for 25 days; type: organism-based; conditions: in vivo, 600 h, dose 150-300 mg/kg, time 25 day
Mus musculus [13] = test: In vivo inhibition of MMP-9 activity in indomethacin-induced Balb/c mouse model of gastric ulcer at 50 mg/kg, po pre-administered with compound for 30 mins followed by indomethacin administration and measured after 4 hrs by SDS-PAGE based gelatin zymography method; type: functional, organism-based; conditions: time 4.5 hrs
Mus musculus [14] = test: Antiulcer activity in indomethacin-induced Balb/c mouse model of gastric ulcer assessed as inhibition of gastric mucosal apoptosis at 50 mg/kg, po pre-administered with compound for 30 mins followed by indomethacin administration and measured after 4 hrs by TUNEL assay; type: functional, organism-based; conditions: time 4.5 hrs
Mus musculus [15] = test: Antiulcer activity in indomethacin-induced Balb/c mouse model of gastric ulcer assessed as mean ulcer index at 50 mg/kg, po pre-administered with compound for 30 mins followed by indomethacin administration and measured after 4 hrs (reference value: 52.5 +/- 1.4); type: functional; conditions: time 4.5 hrs
Mus musculus [16] = test: Antiulcer activity in indomethacin-induced Balb/c mouse model of gastric ulcer assessed as cell injury in mucosa at 50 mg/kg, po pre-administered with compound for 30 mins followed by indomethacin administration and measured after 4 hrs by H&E staining based analysis (reference value: 70+/- 6.5 %); type: functional; conditions: time 4.5 hrs
Mus musculus [17] = test: In vivo inhibition of MMP-9 expression in indomethacin-induced Balb/c mouse model of gastric ulcer at 50 mg/kg, po pre-administered with compound for 30 mins followed by indomethacin administration and measured after 4 hrs by PI staining based immunofluorescence analysis; type: functional, organism-based; conditions: time 4.5 hrs
Mus musculus [18] = test: Antioxidant activity in indomethacin-induced Balb/c mouse model of gastric ulcer assessed as lipid peroxidation by measuring TBARS activity in stomach at 50 mg/kg, po pre-administered with compound for 30 mins followed by indomethacin administration and measured after 4 hrs by TBARS assay (reference value: 1.40 +/- 0.03 nmol/mg); type: functional; conditions: time 4.5 hrs
[19] = Toxicity in Balb/c mouse assessed as abdominal distension at 150 to 300 mg/kg, po administered via gavage for 25 days; type: organism-based; conditions: in vivo, 600 h, dose 150-300 mg/kg, time 25 day
Mus musculus [20] = test: Antiulcer activity in indomethacin-induced Balb/c mouse model of gastric ulcer assessed as reduction in gastric tissue injury at 50 mg/kg, po pre-administered with compound for 30 mins followed by indomethacin administration and measured after 4 hrs by H&E staining based analysis; type: functional, organism-based; conditions: time 4.5 hrs
[21] = molecular target: T1, Matrix metalloproteinase-9; test: Inhibition of human MMP-9 at 500 uM incubated for 3 hrs by SDS-PAGE based gelatin zymography analysis
[22] = Toxicity in Balb/c mouse assessed as mortality at 150 to 300 mg/kg, po administered via gavage for 25 days; type: organism-based; conditions: in vivo, 600 h, dose 150-300 mg/kg, time 25 day
Mus musculus [23] = test: as §1, with “as” for “as prevention of”, “(reference value: 147 +/- 5.2%)” for “relative to control”; type: functional; conditions: time 4.5 hrs
Mus musculus [24] = test: Antiulcer activity in indomethacin-induced Balb/c mouse model of gastric ulcer assessed as inhibition of ulceration at 50 mg/kg, po pre-administered with compound for 30 mins followed by indomethacin administration and measured after 4 hrs relative to control; type: functional; conditions: time 4.5 hrs
Mus musculus [25] = test: Antiulcer activity in indomethacin-induced Balb/c mouse model of gastric ulcer assessed as mean ulcer index at 12 mg/kg, po pre-administered with compound for 30 mins followed by indomethacin administration and measured after 4 hrs (reference value: 52.5 +/- 1.4); type: functional; conditions: time 4.5 hrs
Mus musculus [26] = test: Antiulcer activity in indomethacin-induced Balb/c mouse model of gastric ulcer assessed as inhibition of ulceration at 12 mg/kg, po pre-administered with compound for 30 mins followed by indomethacin administration and measured after 4 hrs relative to control; type: functional; conditions: time 4.5 hrs

T1 sequence (P14780 whole entry): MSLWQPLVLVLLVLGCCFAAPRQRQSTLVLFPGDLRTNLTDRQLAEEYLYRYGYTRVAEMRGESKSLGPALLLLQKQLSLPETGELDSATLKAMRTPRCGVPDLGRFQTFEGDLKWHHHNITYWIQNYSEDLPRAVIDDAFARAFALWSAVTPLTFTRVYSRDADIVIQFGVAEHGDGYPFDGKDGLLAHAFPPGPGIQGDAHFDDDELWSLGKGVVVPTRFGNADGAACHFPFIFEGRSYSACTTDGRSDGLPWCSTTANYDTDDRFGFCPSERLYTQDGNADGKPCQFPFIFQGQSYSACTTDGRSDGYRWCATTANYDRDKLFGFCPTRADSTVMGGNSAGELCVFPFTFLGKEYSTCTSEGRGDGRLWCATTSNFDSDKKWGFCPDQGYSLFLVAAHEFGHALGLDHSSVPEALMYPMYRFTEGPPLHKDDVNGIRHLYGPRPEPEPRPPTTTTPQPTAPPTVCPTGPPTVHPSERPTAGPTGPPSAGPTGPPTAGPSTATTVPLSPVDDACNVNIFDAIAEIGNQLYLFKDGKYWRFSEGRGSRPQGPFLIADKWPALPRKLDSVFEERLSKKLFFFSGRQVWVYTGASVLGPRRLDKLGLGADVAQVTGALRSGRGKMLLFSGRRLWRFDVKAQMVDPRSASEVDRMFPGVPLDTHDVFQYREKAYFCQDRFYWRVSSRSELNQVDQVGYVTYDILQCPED
72 kDa type IV collagenase (Homo sapiens), sequence (P08253 110-660 limits assumed): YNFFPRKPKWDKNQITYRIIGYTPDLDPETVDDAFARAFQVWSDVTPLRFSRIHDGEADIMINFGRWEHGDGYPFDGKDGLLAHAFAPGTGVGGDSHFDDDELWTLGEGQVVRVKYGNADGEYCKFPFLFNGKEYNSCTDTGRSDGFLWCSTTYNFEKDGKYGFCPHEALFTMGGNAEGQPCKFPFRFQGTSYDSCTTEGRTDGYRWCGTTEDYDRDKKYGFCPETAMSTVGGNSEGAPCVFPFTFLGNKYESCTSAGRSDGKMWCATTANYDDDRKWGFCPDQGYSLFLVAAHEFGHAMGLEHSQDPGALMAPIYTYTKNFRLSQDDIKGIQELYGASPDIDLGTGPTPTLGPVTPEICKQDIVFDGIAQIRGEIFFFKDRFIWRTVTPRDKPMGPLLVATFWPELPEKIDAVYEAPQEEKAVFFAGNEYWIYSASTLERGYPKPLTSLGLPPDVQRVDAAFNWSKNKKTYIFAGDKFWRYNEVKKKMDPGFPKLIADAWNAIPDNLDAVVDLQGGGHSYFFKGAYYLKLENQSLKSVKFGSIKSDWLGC

## COc1cccc2[nH]cc(-c3cc(-c4ccccc4)oc3-c3ccccc3)c12
[1]
  Activity: Non-Toxic
[2]
  AUC: 1270 µg·h/mL
Mus musculus [3]
  Activity: 100%
Mus musculus [4]
  Activity: Active
[5]
  Activity: Non-Toxic
[6]
  Tmax: 6 h
[7]
  IC50: ~50 µM
[8]
  IC50: > 100 µM
[9]
  inhibition: inactive
Mus musculus [10]
  Activity: ~90%
[11]
  Activity: Non-Toxic
[12]
  Activity: Non-Toxic
Mus musculus [13]
  inhibition: Active
Mus musculus [14]
  Activity: Active
Mus musculus [15]
  UI: 2.5
Mus musculus [16]
  Activity: 12%
Mus musculus [17]
  inhibition: Active
Mus musculus [18]
  Activity: 0.47 nmol/mg
[19]
  Activity: Non-Toxic
Mus musculus [20]
  Activity: Active
[21]
  inhibition: Active
[22]
  Activity: Non-Toxic
Mus musculus [23]
  Activity: 92%
Mus musculus [24]
  inhibition in vivo at 50 mg/kg: 95%

## COc1ccc2[nH]cc(-c3cc(-c4ccccc4)oc3-c3ccccc3)c2c1OC
Mus musculus [15]
  UI: 13.5
Mus musculus [24]
  inhibition in vivo at 50 mg/kg: 74%

## Oc1ccc2[nH]cc(-c3cc(-c4ccccc4)oc3-c3ccccc3)c2c1
Mus musculus [15]
  UI: 11.5
Mus musculus [24]
  inhibition in vivo at 50 mg/kg: 78%

## c1ccc(-c2cc(-c3c(-c4ccccc4)[nH]c4ccccc34)c(-c3ccccc3)o2)cc1
Mus musculus [15]
  UI: 18.25
Mus musculus [24]
  inhibition in vivo at 50 mg/kg: 65%

## COc1ccc2[nH]cc(-c3cc(-c4ccccc4)oc3-c3ccccc3)c2c1
Mus musculus [15]
  UI: 9
Mus musculus [24]
  inhibition in vivo at 50 mg/kg: 83%

## COc1cccc2c1c(-c1cc(-c3ccccc3)oc1-c1ccccc1)cn2C
Mus musculus [15]
  UI: 23.25
Mus musculus [24]
  inhibition in vivo at 50 mg/kg: 56%

## Oc1ccccc1-c1[nH]c2ccccc2c1-c1cc(-c2ccccc2)oc1-c1ccccc1
Mus musculus [15]
  UI: 14.5
Mus musculus [24]
  inhibition in vivo at 50 mg/kg: 72%

## COc1ccc2[nH]c([S+]([O-])Cc3ncc(C)c(OC)c3C)nc2c1 (stereo not given) [OMEPRAZOLE]
Mus musculus [25]
  UI: 0.5
Mus musculus [26]
  inhibition in vivo at 12 mg/kg: 100%

## c1ccc(-c2cc(-c3c[nH]c4ccccc34)c(-c3ccccc3)o2)cc1
Mus musculus [15]
  UI: 20.2
Mus musculus [24]
  inhibition in vivo at 50 mg/kg: 62%
